Test results reported in patent publication US6921776B1, “Compound” (Sterix Limited, priority 1996, dated 2005).
Read-outs that look alike come from different tables or passages of the source. Each block holds one molecule with its values, some of them ahead of it.

What was measured:
[1] = biological target: T1, oestrone sulphatase (E1-STS) (Homo sapiens, UniProt P08842); conditions: for E1-STS inhibitory potency compared with COUMATE: placental microsomes
T1 sequence (P08842 22-583): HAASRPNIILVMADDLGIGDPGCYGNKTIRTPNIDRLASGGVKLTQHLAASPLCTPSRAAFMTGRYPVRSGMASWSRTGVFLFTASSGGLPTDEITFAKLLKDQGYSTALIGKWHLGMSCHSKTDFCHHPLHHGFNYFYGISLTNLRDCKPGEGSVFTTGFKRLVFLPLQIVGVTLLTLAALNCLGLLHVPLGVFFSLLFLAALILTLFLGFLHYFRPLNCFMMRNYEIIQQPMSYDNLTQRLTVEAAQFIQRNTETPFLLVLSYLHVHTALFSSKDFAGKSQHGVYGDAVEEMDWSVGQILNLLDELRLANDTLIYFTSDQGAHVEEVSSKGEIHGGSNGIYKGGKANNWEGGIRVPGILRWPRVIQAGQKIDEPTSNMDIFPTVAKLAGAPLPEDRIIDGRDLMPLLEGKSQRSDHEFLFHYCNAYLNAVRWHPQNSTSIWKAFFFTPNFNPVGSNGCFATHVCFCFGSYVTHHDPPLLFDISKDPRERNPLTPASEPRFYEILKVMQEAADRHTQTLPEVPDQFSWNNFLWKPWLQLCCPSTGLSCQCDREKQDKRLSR

[2] = biological target: T1, oestrone sulphatase (E1-STS); conditions: cited from earlier work; for Mode of E1-STS inhibition: literature
[3] = biological target: T2, dehydroepiandrosterone sulphatase (DHA-STS) (Homo sapiens, UniProt P08842); conditions: read-out: IC50 for inhibition of DHEA sulphatase in placental microsomes; from Ref. 25; cited from earlier work
T2 sequence (P08842 22-583): T1 sequence (P08842 22-583)

rat liver DHA-STS = biological target: T3, rat liver DHA-STS (Rattus norvegicus, UniProt P15589); conditions: administered orally or subcutaneously; cited from earlier work
T3 construct: host or cells: rat liver, after dosing in vivo
T3 sequence (P15589 20-577): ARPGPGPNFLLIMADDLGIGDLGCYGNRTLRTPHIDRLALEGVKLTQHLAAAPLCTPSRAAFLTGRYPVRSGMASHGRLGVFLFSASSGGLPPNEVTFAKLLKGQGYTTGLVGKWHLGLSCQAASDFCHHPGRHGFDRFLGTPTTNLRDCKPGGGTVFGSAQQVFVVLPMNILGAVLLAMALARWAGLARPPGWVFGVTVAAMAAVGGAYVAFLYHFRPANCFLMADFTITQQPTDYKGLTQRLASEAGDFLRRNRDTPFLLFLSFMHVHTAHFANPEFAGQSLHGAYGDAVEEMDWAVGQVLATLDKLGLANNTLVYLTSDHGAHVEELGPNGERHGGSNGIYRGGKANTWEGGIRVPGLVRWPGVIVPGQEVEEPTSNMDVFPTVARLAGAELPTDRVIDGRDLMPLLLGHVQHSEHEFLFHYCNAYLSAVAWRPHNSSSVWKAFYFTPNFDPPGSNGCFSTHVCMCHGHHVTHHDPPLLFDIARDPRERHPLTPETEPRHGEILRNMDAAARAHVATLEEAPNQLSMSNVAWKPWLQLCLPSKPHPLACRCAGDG

[4] = biological target: T1, oestrone sulphatase (E1-STS); set-up: endogenous in cells; host or cells: MCF-7 breast cancer cells; conditions: 0.1 μM; cited from earlier work
[5] = biological target: T1, oestrone sulphatase (E1-STS); test: Time- and concentration-dependent inactivation of oestrone sulphatase in placental microsomes (preincubation); assay type: biochemical
ovariectomised rats = test: Oestrogenic activity: uterine weight in ovariectomised rats; assay type: in vivo, rat; conditions: 1 mg/kg s.c. for 5 days
E1-STS [6] = biological target: T4, E1-STS (Rattus norvegicus, UniProt P15589); test: E1-STS activity in uteri of treated ovariectomised rats; assay type: in vivo; conditions: 1 mg/kg s.c. for 5 days
T4 construct: The E1-STS activity in the uteri obtained from these animals; from tissue; host or cells: uteri of ovariectomised rats dosed in vivo
T4 sequence (P15589 20-577): T3 sequence (P15589 20-577)

oestrone sulphatase = biological target: T5, oestrone sulphatase (Rattus norvegicus, UniProt P15589); test: Sulphatase activity in white blood cells of rats after oral dosing; assay type: in vivo
T5 construct: from tissue; host or cells: white blood cells of orally dosed rats
T5 sequence (P15589 20-577): T3 sequence (P15589 20-577)

[7] = biological target: T1, oestrone sulphatase (E1-STS); conditions: cited from earlier work
ovariectomized rats [8] = conditions: oral, from Ref. 31; cited from earlier work
[9] = Chemical and thermal stability of coumarin sulphate; assay type: physicochemical; conditions: sodium hydroxide in methanol
E1-STS [10] = biological target: T6, E1-STS (Homo sapiens, UniProt P08842); conditions: previous work, Ref. 28; cited from earlier work
T6 sequence (P08842 22-583): T1 sequence (P08842 22-583)

E1-STS [11] = biological target: T6, E1-STS; test: Substrate test: hydrolysis of coumarin sulphates by placental microsomes in absence or presence of EMATE; conditions: 100 μg, 1 h, placental microsomes ± EMATE 10 μM
[12] = in vivo; cited from earlier work
ovariectomized rats [13] = test: Oestrogenicity after oral administration: E1S-stimulated uterine growth in ovariectomized rats; assay type: in vivo, rat
From the text: The oestrogenic activity of 17 was also studied.

[14] = biological target: T1, oestrone sulphatase (E1-STS); test: Inhibition of oestrone sulphatase (E1-STS) in intact MCF-7 breast cancer cells; conditions: 10 μM

Molecule: C[C@]12CC[C@@H]3c4ccc(OS(N)(=O)=O)cc4CC[C@H]3[C@@H]1CCC2=O [EMATE, oestrone-3-sulphamate]
Mode of E1-STS inhibition [2]: time- and concentration-dependent manner
KI (inactivation) ([2]; read-out: Apparent Ki for E1-STS inactivation, from Ref. 25): 670 nM
IC50 [3]: 110 nM
Inhibition of rat liver DHA-STS activity (rat liver DHA-STS): 99%
% inhibition of E1-STS activity in intact MCF-7 cells [4]: more than 99%
IC50 [1]: 25 nM

Molecule: oestrone-3-S-sulphamate
Mode of E1-STS inhibition [2]: weaker non-time-dependent inactivators

Molecule: Cc1cc(=O)oc2cc(OS(=O)(=O)[O-])ccc12.[Na+] [compound 12, 7-(Sulphoxy)-4-Methylcoumarin, sodium salt]
Stability in basic and acidic conditions [9]: stable in bases such as sodium hydroxide in methanol but not in acidic conditions
melting point: 172 to 175 °C (dec.)
Substrate for E1-STS (E1-STS [10]): substrate for E1-STS
Substrate for E1-STS (E1-STS [11]): the coumarin sulphate is indeed a substrate for the sulphatase

Molecule: Coumarin-7-O-sulphamate [compound 13]
% Inhibition ± S.D. of E1-STS activity in placental microsomes ([7]; 10 μM (Table 1, reproduced from Ref. 28)): 78 ± 1%
% Inhibition of E1-STS activity in placental microsomes ([7]; 50 μM (footnote a, Ref. 28)): > 90%

Molecule: C[C@]12CC[C@@H]3c4ccc(OS(=O)(=O)O)cc4CC[C@H]3[C@@H]1CCC2=O [E1S, oestrone sulphate]
Half-life in blood [12]: 10 to 12 h

Molecule: NS(=O)(=O)Oc1ccc2c3c(c(=O)oc2c1)CCCCC3 [compound 17, 6-Oxo-8,9,10,11-tetrahydro-7H-cyclohepta-[c][1]benzopyran-3-O-sulphamate]
Oestrogenicity (ovariectomized rats [13]): devoid of oestrogenicity
Oestrogenicity (ovariectomized rats [13]; listed as 667COUMATE): not being oestrogenic

Molecule: NS(=O)(=O)Oc1ccc2c(c1)OC(=O)CC1=C2CCCC1 [compound 22, 6-Oxo-6,7,8,9,10,11-hexahydrodibenz[b,d]oxepin-3-O-sulphamate]
% Inhibition ± S.D. of E1-STS activity in placental microsomes ([1]; 0.01 μM (Table 2)): <10%
% Inhibition ± S.D. of E1-STS activity in placental microsomes ([1]; 0.1 μM (Table 2)): 31 ± 5%
% Inhibition ± S.D. of E1-STS activity in placental microsomes ([1]; 1 μM (Table 2)): 94 ± 2%

Molecule: NS(=O)(=O)Oc1ccc2c(C(F)(F)F)cc(=O)oc2c1 [compound 16]
% inhibition of E1-STS in intact MCF-7 cells [14]: 71.5%

Molecule: oestrone-3-N-sulphamate
Mode of E1-STS inhibition [2]: weaker non-time-dependent inactivators

Molecule: O=c1oc2cc(OS(=O)(=O)O)ccc2c2c1CCCCC2 [compound 18, 6-Oxo-3-sulfooxy-8,9,10,11-tetrahydro-7H-cyclohepta-[c][1]-benzopyran]
Substrate for E1-STS (E1-STS [11]): is a substrate for this enzyme

More lines, main results first:

% Inhibition ± S.D. of E1-STS activity in placental microsomes ([1]; 0.1 μM (Table 1)): 83 ± 1%
% Inhibition ± S.D. of E1-STS activity in placental microsomes ([1]; 1 μM (Table 1)): 97 ± 1%
% Inhibition ± S.D. of E1-STS activity in placental microsomes ([1]; 10 μM (Table 1)): >99%
Molecule: CCCc1c(C)c2ccc(OS(N)(=O)=O)cc2oc1=O [compound 11, 4Methyl-3-(n-propyl)coumarin-7-O-sulphamate]
E1-STS inhibitory potency compared with COUMATE [1]: more potent E1-STS inhibitors than COUMATE

% Inhibition ± S.D. of E1-STS activity in placental microsomes ([1]; 0.1 μM (Table 1)): 42 ± 2%
% Inhibition ± S.D. of E1-STS activity in placental microsomes ([1]; 1 μM (Table 1)): 94 ± 1%
% Inhibition ± S.D. of E1-STS activity in placental microsomes ([1]; 10 μM (Table 1)): 96 ± 1%
Molecule: CCCc1cc(=O)oc2cc(OS(N)(=O)=O)ccc12 [compound 6, 4-(n-Propyl)coumarin-7-O-sulphamate]
E1-STS inhibitory potency compared with COUMATE [1]: more potent E1-STS inhibitors than COUMATE

% Inhibition ± S.D. of E1-STS activity in placental microsomes ([1]; 0.1 μM (Table 1)): 35 ± 1%
% Inhibition ± S.D. of E1-STS activity in placental microsomes ([1]; 1 μM (Table 1)): 88 ± 1%
% Inhibition ± S.D. of E1-STS activity in placental microsomes ([1]; 10 μM (Table 1)): >99%
Molecule: CCc1cc(=O)oc2cc(OS(N)(=O)=O)ccc12 [compound 4, 4-Ethylcoumarin-7-O-sulphamate]
E1-STS inhibitory potency compared with COUMATE [1]: more potent E1-STS inhibitors than COUMATE

Inhibition of E1-STS activity in uteri compared with untreated animals (E1-STS [6]): 89.4%
Oral activity in rats (oestrone sulphatase): potent oral activity
% Inhibition of sulphatase activity in white blood cells, MD (oestrone sulphatase; daily for seven days 0.1 mg/kg): 65%
% Inhibition of sulphatase activity in white blood cells, MD (oestrone sulphatase; daily for seven days 1.0 mg/kg): 85%
% Inhibition of sulphatase activity in white blood cells, MD (oestrone sulphatase; daily for seven days 10.0 mg/kg): 89%
Molecule: Cc1cc(=O)oc2cc(OS(N)(=O)=O)ccc12 [compound 14]
Mode of E1-STS inhibition [5]: time- and concentration-dependent manner in a biphasic fashion
Effect on uterine weight (oestrogenic activity) (ovariectomised rats): did not result in any significant increase in the uterine weight
% Inhibition ± S.D. of E1-STS activity in placental microsomes ([7]; 0.1 μM (Table 1, reproduced from Ref. 28)): <10%
% Inhibition ± S.D. of E1-STS activity in placental microsomes ([7]; 1 μM (Table 1, reproduced from Ref. 28)): 63 ± 1%
Oestrogenicity (ovariectomized rats [8]): devoid of oestrogenicity

% Inhibition ± S.D. of E1-STS activity in placental microsomes ([1]; 0.01 μM (Table 2)): 17 ± 2%
% Inhibition ± S.D. of E1-STS activity in placental microsomes ([1]; 0.1 μM (Table 2)): 89 ± 1%
Inhibition of E1-STS in placental microsomes ([1]; 1 μM): almost complete inhibition
% Inhibition ± S.D. of E1-STS activity in placental microsomes ([1]; 1 μM (Table 2)): >99%
Molecule: NS(=O)(=O)Oc1ccc2c3c(c(=O)oc2c1)CCCCCC3 [compound 20, 6-Oxo-7,8,9,10,11,12-hexahydro-cycloocta-[c][1]benzopyran-3-O-sulphamate]

% Inhibition ± S.D. of E1-STS activity in placental microsomes ([1]; 0.1 μM (Table 1)): 57 ± 1%
% Inhibition ± S.D. of E1-STS activity in placental microsomes ([1]; 1 μM (Table 1)): 96 ± 1%
% Inhibition ± S.D. of E1-STS activity in placental microsomes ([1]; 10 μM (Table 1)): >99%
Molecule: CCc1c(C)c2ccc(OS(N)(=O)=O)cc2oc1=O [compound 8, 3-Ethyl-4-methylcoumarin-7-O-sulphamate]
E1-STS inhibitory potency compared with COUMATE [1]: more potent E1-STS inhibitors than COUMATE
